Patent US8410026B2, “Pyridazine fungicides” (Syngenta Crop Protection LLC, priority 2008, dated 2013)

Assays:
[1] = system: Mycosphaerella graminicola (Septoria tritici); experiment: Mycosphaerella graminicola (Septoria tritici) / wheat / preventive (action against Septoria leaf spot on wheat); format: in vivo; conditions: Zymoseptoria tritici, preventive spray, wheat plants cv. Riband, inoculated 1 day after application, assessed 16-18 days after inoculation, read-out: inhibits fungal infestation
Description: Mycosphaerella graminicola (Septoria tritici)/Wheat/Preventive (Action Against Septoria Leaf Spot on Wheat) 2 weeks old wheat plants cv. Riband are treated with the formulated test compound in a spray chamber. One day after application wheat plants are inoculated by spraying a spore suspension (10^6 conidia/ml) on the test plants. After an incubation period of 1 day at 22° C./21° C. and 95% r. h. plants are kept at 22° C./21° C. and 70% r.h. in a greenhouse. The disease incidence is assessed 16-18 days after inoculation.

Alternaria solani = Alternaria solani / tomato / preventive (action against Alternaria on tomato); format: in vivo; conditions: preventive spray, tomato plants cv. Roter Gnom, inoculated 2 days after application, assessed after 4 days incubation, read-out: inhibit fungal infestation
Description: (§1) Alternaria solani/Tomato/Preventive (Action Against Alternaria on Tomato) 4 weeks old tomato plants cv. Roter Gnom are treated with the formulated test compound in a spray chamber. Two days after application tomato plants are inoculated by spraying a spore suspension on the test plants. After an incubation period of 4 days at 22° C./18° C. and 95% r. h. in a greenhouse the disease incidence is assessed.

[2] = system: Pyrenophora teres (Helminthosporium teres); experiment: Pyrenophora teres (Helminthosporium teres) / barley / preventive (action against net blotch on barley); format: in vivo; conditions: preventive spray, barley plants cv. Regina, inoculated 2 days after application, assessed after 4 days incubation, read-out: inhibit fungal infestation
Description: Pyrenophora teres (Helminthosporium teres)/Barley/Preventive (Action Against Net Blotch on Barley) 1-week-old barley plants cv. Regina are treated with the formulated test compound in a spray chamber. Two days after application barley plants are inoculated by spraying a spore suspension (2.6×10^4 conidia/ml) on the test plants. After an incubation period of 4 days at 20° C. and 95% r. h. the disease incidence is assessed.

[3] = system: Magnaporthe qrisea (Pyricularia oryzae); experiment: whole plant or invertebrate; format: in vivo; conditions: read-out: inhibit fungal infestation
[4] = system: Puccinia recondite f. sp. tritici; experiment: Puccinia recondite f. sp. tritici / wheat / preventive (action against brown rust on wheat); format: in vivo; conditions: preventive spray, wheat plants cv. Arina, inoculated 1 day after application, assessed 11 days after inoculation, read-out: inhibit fungal infestation
Description: Puccinia recondite f. sp. tritici/Wheat/Preventive (Action Against Brown Rust on Wheat) 1 week old wheat plants cv. Arina are treated with the formulated test compound in a spray chamber. One day after application wheat plants are inoculated by spraying a spore suspension (1×105 uredospores/ml) on the test plants. After an incubation period of 1 day at 20° C. and 95% r. h. plants are kept for 10 days 20° C./18° C. (day/night) and 60% r. h. in a greenhouse. The disease incidence is assessed 11 days after inoculation.

[5] = system: Uncinula necator (Erysiphe necator); experiment: Uncinula necator (Erysiphe necator) / grape / preventive (action against powdery mildew on grape); format: in vivo; conditions: preventive spray, grape seedlings cv. Gutedel, inoculated 1 day after application, assessed after 7 days incubation, read-out: inhibit fungal infestation
Description: Uncinula necator (Erysiphe necator)/Grape/Preventive (Action Against Powdery Mildew on Grape) 5 weeks old grape seedlings cv. Gutedel are treated with the formulated test compound in a spray chamber. One day after application grape plants are inoculated by shaking plants infected with grape powdery mildew above the test plants. After an incubation period of 7 days at 24° C./22° C. and 70% r. h. under a light regime of 14/10 h (light/dark) the disease incidence is assessed.

[6] = system: Botryotinia fuckeliana (Botrytis cinerea); experiment: Botryotinia fuckeliana (Botrytis cinerea) / tomato / preventive (action against Botrytis on tomato); format: in vivo; conditions: preventive spray, tomato plants cv. Roter Gnom, inoculated 2 days after application, assessed after 3 days incubation, read-out: inhibit fungal infestation
Description: as §1, with “Botryotinia fuckeliana (Botrytis cinerea)/Tomato/Preventive (Action” for “Alternaria solani/Tomato/Preventive (Action”, “Against Botrytis” for “Against Alternaria”, “of 3” for “of 4”, “at 20°” for “at 22° C./18°”

CCc1nnc(Cl)c(-c2c(F)cc(F)cc2F)c1-c1ccc(Cl)nc1 [I.a.14, 3-chloro-5-(6-chloro-pyridin-3-yl)-6-ethyl-4-(2,4,6-trifluoro-phenyl)-pyridazine]
inhibition at 200 ppm [1]: ≥ 80% | inhibition at 200 ppm (Alternaria solani): ≥ 80% | inhibition at 200 ppm [2]: ≥ 80% | inhibition at 200 ppm [3]: ≥ 80% | inhibition at 200 ppm [4]: ≥ 80% | inhibition at 200 ppm [5]: ≥ 80% | melting point: 125 to 126 °C

COc1cc(F)c(-c2c(Cl)nnc(C)c2-c2ccc(Cl)nc2)c(F)c1 [I.a.20, 3-chloro-5-(6-chloro-pyridin-3-yl)-4-(2,6-difluoro-4-methoxy-phenyl)-6-methyl-pyridazine]
inhibition at 200 ppm [1]: ≥ 80% | inhibition at 200 ppm (Alternaria solani): ≥ 80% | inhibition at 200 ppm [2]: ≥ 80% | inhibition at 200 ppm [3]: ≥ 80% | inhibition at 200 ppm [4]: ≥ 80% | melting point: 148 to 149 °C

COc1nnc(C)c(-c2ccc(Cl)nc2)c1-c1c(F)cc(F)cc1F [I.a.12, 4-(6-chloro-pyridin-3-yl)-6-methoxy-3-methyl-5-(2,4,6-trifluoro-phenyl)-pyridazine]
inhibition at 200 ppm (Alternaria solani): ≥ 80% | inhibition at 200 ppm [2]: ≥ 80% | inhibition at 200 ppm [4]: ≥ 80% | inhibition at 200 ppm [5]: ≥ 80% | melting point: 123 to 124 °C | inhibition at 200 ppm [6]: ≥ 80%

Cc1nnc(Cl)c(-c2c(F)cccc2Cl)c1-c1ccc(Cl)nc1 [I.a.02, 3-chloro-4-(2-chloro-6-fluoro-phenyl)-5-(6-chloro-pyridin-3-yl)-6-methyl-pyridazine]
inhibition at 200 ppm [1]: ≥ 80% | inhibition at 200 ppm (Alternaria solani): ≥ 80% | inhibition at 200 ppm [2]: ≥ 80% | inhibition at 200 ppm [3]: ≥ 80% | inhibition at 200 ppm [4]: ≥ 80% | inhibition at 200 ppm [5]: ≥ 80% | inhibition at 200 ppm [6]: ≥ 80%

CC(C)c1nnc(Cl)c(-c2c(F)cc(F)cc2F)c1-c1ccc(Cl)nc1 [I.a.17, 3-chloro-5-(6-chloro-pyridin-3-yl)-6-isopropyl-4-(2,4,6-trifluoro-phenyl)-pyridazine]
melting point: 146 to 149 °C

Cc1nnc(Cl)c(-c2c(F)cc(F)cc2F)c1-c1cnc(Cl)c(Cl)c1 [I.g.11, 3-chloro-5-(5,6-dichloro-pyridin-3-yl)-6-methyl-4-(2,4,6-trifluoro-phenyl)-pyridazine]
inhibition at 200 ppm [3]: ≥ 80% | inhibition at 200 ppm [5]: ≥ 80% | melting point: 185 to 188 °C
